Test results published in article PMC6233306 (Bioorganic & medicinal chemistry letters, 2018).
In brackets after ≈: the same amount, converted by molar mass.

What was measured:
[1] = Chemical stability of coumarin core towards organic bases; type: physicochemical; conditions: prolonged time at ambient temperature; gives equimolar ring-opened product 5
[2] = test system: Mtb H37Rv; test: Mtb H37Rv growth inhibition; type: cell-based, Mycobacterium tuberculosis; conditions: for MIC90: Mycobacterium tuberculosis, H37RV, read-out: Mtb H37Rv MIC90; for MICs: in words
[3] = Kinetic aqueous solubility; type: physicochemical; conditions: pH 7.4, water, kinetic from dmso stock
[4] = test system: H37Rv

Question: Which “stability towards organic bases such as morpholine” value [1] does the source give for `Cc1cc2oc(=O)cc(-c3ccc(F)cc3)c2c(C)c1-c1ccc(CN2CCOCC2)cc1` [Compound 4] here?
Answer: not stable

Question: Which MIC90 [2] does the source give for `Cc1cc2nccc(-c3ccccc3)c2c(C)c1-c1ccc(CN2CCOCC2)cc1` [Compound 8] here?
Answer: 0.45 µM (≈ 0.184 µg/mL)

Question: Which MIC90 [2] does the source give for `Cc1cc2nccc(-c3ccccc3Cl)c2c(C)c1-c1ccc(CN2CCOCC2)cc1` [Compound 15a] here?
Answer: 0.3 µM (≈ 0.133 µg/mL)

Question: With `Cc1cc2nccc(-c3cccc(Cl)c3)c2c(C)c1-c1ccc(CN2CCOCC2)cc1` [Compound 15b] as the compound, how does the MIC90 [2] read?
Answer: 1.5 µM (≈ 0.664 µg/mL)

Question: For `Cc1cc2nccc(-c3ccc(Cl)cc3)c2c(C)c1-c1ccc(CN2CCOCC2)cc1` [Compound 15c], which MIC90 [2] is on record?
Answer: > 80 µM

Question: Which MIC90 [2] does the source give for `Cc1cc2nccc(-c3ccccc3C#N)c2c(C)c1-c1ccc(CN2CCOCC2)cc1` [Compound 15d] here?
Answer: 2.5 µM (≈ 1.08 µg/mL)

Question: Which MIC90 [2] does the source give for `CCc1ccccc1CNc1ccnc2cc(C)c(-c3ccc(CN4CCOCC4)cc3)c(C)c12` [Compound 15e] here?
Answer: 2.5 µM (≈ 1.16 µg/mL)

Question: With `Cc1cc2nccc(-c3ccccc3C(=O)O)c2c(C)c1-c1ccc(CN2CCOCC2)cc1` [Compound 15f] as the compound, how does the MIC90 [2] read?
Answer: 40 µM (≈ 18.1 µg/mL)

Question: Which MIC90 [2] does the source give for `Cc1cc2nccc(-c3ccccc3C(N)=O)c2c(C)c1-c1ccc(CN2CCOCC2)cc1` [Compound 15g] here?
Answer: 20 µM (≈ 9.03 µg/mL)

Question: Which MIC90 [2] does the source give for `COc1cccc(-c2ccnc3cc(C)c(-c4ccc(CN5CCOCC5)cc4)c(C)c23)c1Cl` [Compound 15h] here?
Answer: 10 µM (≈ 4.73 µg/mL)

Question: For `Cc1cc2nccc(-c3cccnc3)c2c(C)c1-c1ccc(CN2CCOCC2)cc1` [Compound 15j], which solubility kinetic [3] is on record?
Answer: > 150 µM

Question: With `COc1ccncc1-c1ccnc2cc(C)c(-c3ccc(CN4CCOCC4)cc3)c(C)c12` [Compound 15k] as the compound, how does the MIC90 [2] read?
Answer: 2.5 µM (≈ 1.1 µg/mL)

Question: With `COc1ncccc1-c1ccnc2cc(C)c(-c3ccc(CN4CCOCC4)cc3)c(C)c12` [Compound 15l] as the compound, how does the MIC90 [2] read?
Answer: 2.5 µM (≈ 1.1 µg/mL)

Question: For `Cc1cc2nccc(-c3ccnn3C)c2c(C)c1-c1ccc(CN2CCOCC2)cc1` [Compound 15m], which MIC90 [2] is on record?
Answer: 2.5 µM (≈ 1.03 µg/mL)

Question: What about the solubility kinetic [3] of the same compound?
Answer: > 150 µM

Question: What does the source list for `Cc1cc2nccc(-c3cncnc3)c2c(C)c1-c1ccc(CN2CCOCC2)cc1` [Compound 15n]?
Answer: MIC90 [2]: 2.5 µM (≈ 1.03 µg/mL); solubility kinetic [3]: > 150 µM

Question: Which MIC90 [2] does the source give for `Cc1cc2nccc(-c3ccccc3Cl)c2c(C)c1-c1ccncc1` [Compound 15p] here?
Answer: 5 µM (≈ 1.72 µg/mL)

Question: With `CCOC(=O)c1cc(-c2ccccc2Cl)c2c(C)c(-c3ccncc3)c(C)cc2n1` [Compound 18] as the compound, how does the MIC90 [2] read?
Answer: 10 µM (≈ 4.17 µg/mL)

Question: Which MIC90 [2] does the source give for `Cc1cc2nc(CO)cc(-c3ccccc3Cl)c2c(C)c1-c1ccncc1` [Compound 19] here?
Answer: 3.75 µM (≈ 1.41 µg/mL)

Question: Which MIC90 [2] does the source give for `Cc1cc2nc(C(C)(C)O)cc(-c3ccccc3Cl)c2c(C)c1-c1ccncc1` [Compound 20] here?
Answer: > 40 µM

Question: With `Cc1cc2nc(C(N)=O)cc(-c3ccccc3Cl)c2c(C)c1-c1ccncc1` [Compound 21a] as the compound, how does the MIC90 [2] read?
Answer: 1.25 µM (≈ 0.485 µg/mL)

Question: With `CNC(=O)c1cc(-c2ccccc2Cl)c2c(C)c(-c3ccncc3)c(C)cc2n1` [Compound 21b] as the compound, how does the MIC90 [2] read?
Answer: 0.8 µM (≈ 0.322 µg/mL)

Question: And the MICs [2]?
Answer: sub-micromolar

Question: And the CFU reduction ([4]; lung, once-daily oral, dose-dependent, up to 50 mg/kg, 8-day acute model)?
Answer: ~4 log CFU

Question: What about the tolerability ([4]; mice, up to the highest dose of 50 mg/kg) of the same compound?
Answer: no tolerability issue observed

Question: Which MIC90 [2] does the source give for `Cc1cc2nc(C(=O)NC(C)C)cc(-c3ccccc3Cl)c2c(C)c1-c1ccncc1` [Compound 21c] here?
Answer: 2.5 µM (≈ 1.07 µg/mL)

Question: Which MIC90 [2] does the source give for `Cc1cc2nc(C(=O)NCCF)cc(-c3ccccc3Cl)c2c(C)c1-c1ccncc1` [Compound 21d] here?
Answer: 1.25 µM (≈ 0.542 µg/mL)

Question: With `Cc1cc2nc(C(=O)NCCO)cc(-c3ccccc3Cl)c2c(C)c1-c1ccncc1` [Compound 21e] as the compound, how does the MIC90 [2] read?
Answer: 0.3 µM (≈ 0.13 µg/mL)

Question: What about the MICs [2] of the same compound?
Answer: sub-micromolar

Question: With `Cc1cc2nc(C(=O)NCCN(C)C)cc(-c3ccccc3Cl)c2c(C)c1-c1ccncc1` [Compound 21f] as the compound, how does the MIC90 [2] read?
Answer: 0.3 µM (≈ 0.138 µg/mL)

Question: What about the MICs [2] of the same compound?
Answer: sub-micromolar

Question: Which MIC90 [2] does the source give for `Cc1cc2nc(C(=O)N3CCCC3)cc(-c3ccccc3Cl)c2c(C)c1-c1ccncc1` [Compound 23b] here?
Answer: 5 µM (≈ 2.21 µg/mL)
